Data taken from patent publication US8119589B2, “Modulation of CD4+ T cell responses by a tick saliva protein, Salp15 and polypeptides derived therefrom” (University of North Carolina at Charlotte, priority 2004, dated 2012).

Legend:
CD4+ T cells = experiment: Actin polymerization (phalloidin488 staining, F-actin immunoblot, flow cytometry) in activated CD4+ T cells; assay type: cell-based, mouse; conditions: Salp15 pretreatment; effect seen as early as 1 minute of activation
Protocol: For the visualization of lipid rafts, phospho-tyrosine, and cytoskeleton reorganization, CD4^+, CD8^+ or Jurkat cells were cytospun for 10 minutes at 1000 RPM onto positively charged microslides (Fisher Scientific, Hampton, N.H., U.S.A.). The cells were fixed with 3.7% paraformaldehyde (Sigma Chemical Co.) for 15 minutes and stained with CTB594 (Molecular Probes, Eugene, Oreg., U.S.A.), AlexaFluor488 labeled phalloidin (Molecular Probes) or (1:50) biotin-conjugated anti-p-Tyr (PY99) followed by Streptavidin-AlexaFluor594 (1:100, Molecular Probes). […]
Actin polymerization assay was performed as described earlier (Krishnan et al., 2004). […] The cells were washed, resuspended in PBS and analyzed for F-actin content on a FACSCalibur with CellQuest software (Beckton Dickinson, Mountain View, Calif., U.S.A.). […] The cells were washed twice with PBS and analyzed by flow cytometry.
The amount of F-actin in activated CD4+ T cells in the presence and absence of Salp15 was quantified by ultracentrifugation and Western blotting. […] Equal amounts of total protein were loaded on the SDS-gel based on the total actin determined from a sample of the cell lysate.

mouse CD4+ T lymphocytes = experiment: TCR ligation-induced protein tyrosine phosphorylation in anti-CD3/CD28 stimulated CD4+ T cells (immunoblotting, confocal microscopy); assay type: cell-based
Protocol: Naïve CD4+ T cells from C3H/HeN, Balb/c, and B10.BR mice were purified as previously described (Anguita et al., 2002). CD4+ T cells were preincubated in Click's modified Bruff's Medium (Sigma Chemical Co., St. Louis, Mo., U.S.A.) for 10 minutes at 37° C. with and without Salp15 (50 μg/mL) and stimulated for 20 min or the indicated times at 37° C. with 10 μg/mL of anti-CD3ε, 1 μg/mL of anti-CD28, and 10 μg/mL of anti-armenian and syrian hamster IgG (BD Biosciences Pharmingen, San Jose, Calif., U.S.A.). Jurkat (E6-1) cells were stimulated using 5 μg/mL of OKT3 mAb (eBioscience, San Diego, Calif., U.S.A.) and 1 μg/mL of anti-human CD28 cross linked with 5 μg/mL anti-mouse IgG for the indicated times.
(§1) For the visualization of lipid rafts, phospho-tyrosine, and cytoskeleton reorganization, CD4^+, CD8^+ or Jurkat cells were cytospun for 10 minutes at 1000 RPM onto positively charged microslides (Fisher Scientific, Hampton, N.H., U.S.A.). The cells were fixed with 3.7% paraformaldehyde (Sigma Chemical Co.) for 15 minutes and stained with CTB594 (Molecular Probes, Eugene, Oreg., U.S.A.), AlexaFluor488 labeled phalloidin (Molecular Probes) or (1:50) biotin-conjugated anti-p-Tyr (PY99) followed by Streptavidin-AlexaFluor594 (1:100, Molecular Probes). For p-LAT and p-PLCγ1 staining, fixed cells were treated with PBS containing 0.1% Triton-X 100 and 100 mM glycine for 15 min at room temperature and stained using rabbit p-LAT (Tyr^191) or rabbit anti-p-PLCγ1 (Tyr^783) probed with anti-rabbit IgG488 (Molecular Probes).
For tyrosine phosphorylation western analysis, cells were lysed in 60 mM Tris (pH 7.4) containing 150 mM NaCl, 5 mM EDTA, 1 mM EGTA, 1 mM β-glycerol phosphate, 2.5 mM sodium pyrophosphate, 25 mM NaF, 2 mM sodium orthovanadate, 1% Triton-X 100, 0.25% sodium deoxycholate, 1 mM PMSF and protease inhibitors for 15 min on ice, sonicated 4×5 sec and incubated at 37° C. for 10 min. The lysate was cleared by centrifugation and boiled in SDS-sample buffer. The samples were subjected to SDS-PAGE, transferred to a nitrocellulose membrane and immunoblotted with anti-pTyr, anti-pPLCγ1 and anti-Vav1, anti-pSrc family (Tyr^416) to measure p-Lck^394 (Alonso et al., 2004), anti-Lck, anti-pZap70 (Tyr^319), anti-Zap70, p44/42 and p44/42 (phopho-Tyr^204/Thr^202). Vav1 was immunoprecipitated using anti-Vav1 and protein A-agarose beads overnight, subjected to SDS-PAGE followed by immunoblotting with anti-pTyr or anti-Vav1. To examine the effect of Salp15 on T cell stimulation with INFγ, CD4^+ T cells were preincubated with Salp15 at 50 μg/mL followed by activation with 20 ng/mL of mouse recombinant INFγ (R & D Systems, Minneapolis, Minn., U.S.A.) for 30 min at 37° C. The cells were lysed as above and subjected to SDS-PAGE and immunoblotting with anti-pSTAT1 and anti-STAT1.
Quantification of immunoblots was performed using the SCION IMAGE™ software package, Scion Corporation (Frederick, Md., U.S.A.).

Jurkat cells = experiment: Actin polymerization (phalloidin488 staining, F-actin immunoblot) in activated Jurkat cells; assay type: cell-based, human; conditions: Salp15 pretreatment
Protocol: as §1
The amount of F-actin in activated CD4+ T cells in the presence and absence of Salp15 was quantified by ultracentrifugation and Western blotting. CD4^+ T cells were activated as described above for 2 min. Cells were lysed in HEPES buffer containing Triton X-100 (10 mM NaCl, 135 mM KCl, 2 mM MgCl2, 2 mM EGTA, 10 mM HEPES pH 7.15, 1% Triton X-100, 0.01 mg/ml aprotinin, 0.01 mg/ml leupeptin, 1 mM PMSF). […] Equal amounts of total protein were loaded on the SDS-gel based on the total actin determined from a sample of the cell lysate.

[1] = Salp15 pretreatment, quantification of the specific bands

With “Salp15: secreted salivary protein from Ixodes scapularis, SEQ ID NO: 2; recombinant His-tagged, produced in Drosophila S2 cells” as the substance, how does the “Phalloidin488 staining / amount of F-actin” value (CD4+ T cells) read?
Its value is “reduced”.

And the “Reduction of PLCγ1 phosphorylation (Tyr783)” value (mouse CD4+ T lymphocytes; Salp15 pretreatment (50 μg/mL), anti-CD3/CD28 stimulated, compared to control treated cells)?
The value was 46%.

What about the “Reduction in tyrosine phosphorylation of Vav1” value (mouse CD4+ T lymphocytes; Salp15 pretreatment, Vav1 immunoprecipitation, anti-pTyr immunoblot) of the same substance?
Its value is roughly 58%.

And the “Phosphorylation level of Lat at Tyr191” value (mouse CD4+ T lymphocytes; Salp15 pretreatment, immunofluorescence)?
Its value is “reduced”.

What about the “Reduction in tyrosine phosphorylation of Lck (Tyr394)” value (mouse CD4+ T lymphocytes; [1]) of the same substance?
The value was “about 56%”.

What about the “Reduction in tyrosine phosphorylation of Zap70 (Tyr319)” value (mouse CD4+ T lymphocytes; [1]) of the same substance?
The value was roughly 67%.

And the “ERK activation (ERK1/2 phosphorylation)” value (mouse CD4+ T lymphocytes; anti-CD3/CD28 stimulation)?
The value was “does not impair”.

And the “Lck phosphorylation in the absence of T cell stimulation” value (mouse CD4+ T lymphocytes; no stimulation)?
The value was “did not induce”.

And the “Phalloidin488 staining / amount of F-actin” value (Jurkat cells)?
Its value is “reduced”.
